This note sets out measurements from patent US20200352201A1, “METHOD OF VACUUM […] WITH PEROXYC[…] SOLUTIONS” (ZEE COMPANY, INC., priority 2019, published 2020).

The nature of assay [1]: Vacuum infusing boneless beef parts, organoleptic shelf life of the ground product. Conditions: vacuum tumbled about 15 minutes at about -0.4 bar, stored at about 4° C., first failure of duplicates. The method, then:
Samples of beef in an amount of about 1 pound were prepared from boneless beef parts. Each sample was provided in a vacuum container of a vacuum tumbler in the presence of the antimicrobial solution (peroxyacetic acid (“PAA”) or peroxylactic acid (“PLA”)) provided in Table 2, with the control subjected to the same volume of sterile water. The pressure was reduced in the vacuum tumbler to about −0.4 bar, and the contents were rotated in the vacuum-tumbler while under pressure for a period of time of about 15 minutes. Pressure was then returned to atmospheric pressure and the contents of the vacuum container were subjected to grinding and then stored in a sealed plastic bag at about 4° C. The ground product was evaluated daily for appearance and order until reaching failure by abnormal coloration and/or odor. The Control and each microbial concentration sample was performed in duplicate, with the first date of organoleptic failure for the duplicate samples reported in Table 1.

Assay [2] can be described thus: Vacuum infusing boneless poultry parts, organoleptic shelf life of the ground product. The following applies: vacuum tumbled about 15 minutes at about -0.4 bar, stored at about 4° C., first failure of duplicates. The procedure: Samples of poultry in an amount of about 1 pound were prepared from boneless poultry parts. Each sample was provided in a vacuum container of a vacuum tumbler in the presence of the antimicrobial solution (peroxyacetic acid (“PAA”) or peroxylactic acid (“PLA”)) provided in Table 1, with the control subjected to the same volume of sterile water. The pressure was reduced in the vacuum tumbler to about −0.4 bar, and the contents were rotated in the vacuum-tumbler while under pressure for a period of time of about 15 minutes. Pressure was then returned to atmospheric pressure and the contents of the vacuum container were subjected to grinding and then stored in a sealed plastic bag at about 4° C. The ground product was evaluated daily for appearance and order until reaching failure by abnormal coloration and/or odor. The Control and each microbial concentration sample was performed in duplicate, with the first date of organoleptic failure for the duplicate samples reported in Table 1.

On to `CC(O)C(=O)OO` (stereo not shown) [PLA, peroxylactic acid], for which the “Days to Organoleptic Failure” value in assay [1] (100 ppm) was found to be 11 days; in assay [1] (250 ppm), 13 days; in assay [1] (500 ppm), 15 days; in assay [1] (1000 ppm), 17 days; in assay [2] (100 ppm), 11 days; in assay [2] (250 ppm), 14 days. In addition, the results for the “Days to Organoleptic Failure” value in assay [2] (500 ppm) and in assay [2] (1000 ppm) were 16 days and 19 days, respectively.
peroxyacetic acid [PAA]: the “Days to Organoleptic Failure” value in assay [1] (100 ppm) stood at 11 days; in assay [1] (250 ppm), 13 days; in assay [1] (500 ppm), 15 days; in assay [1] (1000 ppm) it was 17 days; in assay [2] (100 ppm) it was 11 days; in assay [2] (250 ppm), 13 days. Besides, the “Days to Organoleptic Failure” value in assay [2] (500 ppm) came to 17 days; in assay [2] (1000 ppm), 19 days.
